Laboratory results taken from patent US20030045557A1, “Thiadiazoles and oxadiazoles and their use as phosphodiesterase-7 inhibitors” (priority 2000, published 2003).

Molecular target: T1, PDE7A1 (Homo sapiens, UniProt Q13946)
T1 construct: made in house; host or cells: Sf21 insect cells (baculovirus expression system)
Assay: In vitro inhibition of phosphodiesterase 7 (enzymatic activity, cAMP substrate 50 nM)
Format: biochemical
Settings: PDE7A1 expressed in Sf 21 insect cells; cAMP 50 nM; reaction 10 minutes; read-out: IC50 (PDE7)
Protocol: The capacity of the compounds of the invention to inhibit cyclic nucleotide phosphodiesterases was evaluated by measuring their IC50 (concentration necessary to inhibit the enzymatic activity by 50%).
PDE3A3, PDE4D3, and PDE7A1 were cloned and expressed in insect cells Sf 21 using the baculovirus expression system. The source of PDE103 and of PDE503 were human cell lines (respectively TPH1 human monocytes and MCF7 human breast adenocarcinoma). The various types of phosphodiesterases were obtained partially purified on an anion exchange column (Mono Q) according to a method adapted from Lavan B. E., Lakey T., Houslay M.D., Biochemical Pharmacology, 1989;38(22):4123-4136.
Measurement of the enzymatic activity for the various types of PDE was then made according to a method adapted from Thompson W. J. et al., Advances in Cyclic Nucleotide Research, ed. G. Brooker et al. New York: Raven Press, 1979;10:69-92.
The substrate used was cGMP for PDE1 and PDE5 and cAMP for PDE3, PDE4, and PDE7. The substrate concentration was 0.2 μM for PDE1, PDE3, and PDE5, 0.25 μM for PDE4, and 50 nM for PDE7.
The enzymatic reaction was stopped after 1 hour for PDE1, PDE3, and PDE5 and 10 minutes for PDE4 and PDE7.

T1 sequence (Q13946 whole entry, species assumed): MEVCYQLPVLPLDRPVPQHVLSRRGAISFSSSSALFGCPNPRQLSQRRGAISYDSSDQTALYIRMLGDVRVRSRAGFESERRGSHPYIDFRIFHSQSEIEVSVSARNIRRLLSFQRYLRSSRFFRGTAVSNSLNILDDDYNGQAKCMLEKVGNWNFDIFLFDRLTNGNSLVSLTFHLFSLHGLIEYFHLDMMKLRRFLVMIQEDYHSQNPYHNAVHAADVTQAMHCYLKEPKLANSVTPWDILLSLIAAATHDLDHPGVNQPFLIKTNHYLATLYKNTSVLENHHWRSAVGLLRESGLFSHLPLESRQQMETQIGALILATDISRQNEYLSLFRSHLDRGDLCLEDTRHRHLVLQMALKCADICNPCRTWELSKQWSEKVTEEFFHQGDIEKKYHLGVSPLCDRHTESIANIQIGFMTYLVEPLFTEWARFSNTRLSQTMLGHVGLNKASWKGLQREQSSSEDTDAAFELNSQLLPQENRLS

SMILES	IC50 [nM]
Cn1nc(-c2ccc(Cl)cc2)s/c1=N\[C@@H]1CCCC[C@H]1O (relative stereo) [Example I8, (1R*,2R*)-2-[5-(4-Chloro-phenyl)-3-methyl-3H-[1,3,4]thiadiazol-2-ylideneamino]-cyclohexanol]	450
Cn1nc(-c2ccc(S(C)(=O)=O)cc2)s/c1=N\[C@@H]1CCCC[C@H]1O (relative stereo) [Example I9, (1R*,2R*)-2-[5-(4-Methanesulfonyl-phenyl)-3-methyl-3H-[1,3,4]thiadiazol-2-ylideneamino-cyclohexanol]	280
Cn1nc(-c2ccc(Cl)cc2)s/c1=N\c1cccc(C(=O)O)c1 [Example I1, 3-[5-(4-Chloro-phenyl)-3-methyl-3H-[1,3,4]thiadiazol-2-ylideneamino]-benzoic acid]	150
Cn1nc(-c2ccc(S(C)(=O)=O)cc2)s/c1=N\c1cccc(C(=O)O)c1 [Example I4]	150
Cn1nc(-c2ccc(Cl)cc2)s/c1=N\C1CC2CCC1C2 (centres unmarked) [Example I7, Bicyclo[2.2.1]hept-2-yl-[5-(4-chloro-phenyl)-3-methyl-3H-[1,3,4]thiadiazol-2-ylidene]-amine]	1050
Cn1nc(-c2ccc(C(F)(F)F)cc2)s/c1=N\C1CCCCC1 [Example I11, Cyclohexyl-[3-methyl-5-(4-trifluoromethyl-phenyl)-3H-[1,3,4]thiadiazol-2-ylidene]-amine]	980
Cn1nc(-c2ccncc2)s/c1=N\C1CCCCC1 [Example I12, Cyclohexyl-(3-methyl-5-pyridin-4-yl-3H-[1,3,4]thiadiazol-2-ylidene)-amine]	290
Cn1nc(-c2cccc(Cl)c2)s/c1=N\C1CCCCC1 [Example I13, [5-(3-Chloro-phenyl)-3-methyl-3H-[1,3,4]thiadiazol-2-ylidene]-cyclohexyl-amine]	700
Cn1nc(-c2ccc(C#N)cc2)s/c1=N\C1CCCCC1 [Example I14, 4-(5-Cyclohexylimino-4-methyl-4,5-dihydro-[1,3,4]thiadiazol-2-yl)-benzonitrile]	270
Cn1nc(-c2ccc(S(C)(=O)=O)cc2)s/c1=N\C1CCCCC1 [Example I15, Cyclohexyl-[5-(4-methanesulfonyl-phenyl)-3-methyl-3H-[1,3,4]thiadiazol-2-ylidene]-amine]	140
Cn1nc(-c2ccc(Cl)c(S(N)(=O)=O)c2)s/c1=N\C1CCCCC1 [Example I19, 2-Chloro-5-(5-cyclohexylimino-4-methyl-4,5-dihydro-[1,3,4]thiadiazol-2-yl)-benzenesulfonamide]	70
COC(=O)c1cccc(-c2nn(C)/c(=N/C3CCCCC3)s2)c1 [Example I21, 3-(5-Cyclohexylimino-4-methyl-4,5-dihydro-[1,3,4]thiadiazol-2-yl)-benzoic acid methyl ester]	150
Cn1nc(-c2ccc(O)c(O)c2)s/c1=N\C1CCCCC1 [Example I22, 4-(5-Cyclohexylimino-4-methyl-4,5-dihydro-[1,3,4]thiadiazol-2-yl)-benzene-1,2-diol; compound with trifluoro methanesulfonic acid]	1000
COc1cc(-c2nn(C)/c(=N/C3CCCCC3)s2)cc(OC)c1O [Example I23, 4-(5-Cyclohexylimino-4-methyl-4,5-dihydro-[1,3,4]thiadiazol-2-yl)-2,6-dimethoxy-phenol]	850
Cn1nc(-c2ccc3cccc(O)c3n2)s/c1=N\C1CCCCC1 [Example I24, 2-(5-Cyclohexylimino-4-methyl-4,5-dihydro-[1,3,4]thiadiazol-2-yl)-quinolin-8-ol]	360

Further lines, results first:

IC50 [nM]	SMILES
1200	Cn1nc(-c2ccc(Cl)cc2)s/c1=N\[C@@H]1CCCC[C@@H]1O (relative stereo) [I3,25, (1R*,2S*)-2-[5-(4-Chloro-phenyl)-3-methyl-3H-[1,3,4]thiadiazol-2-ylideneamino]-cyclohexanol]
470	Cn1nc(-c2cnccn2)s/c1=N\C1CCCCC1 [Example I25, Cyclohexyl-(3-methyl-5-pyrazin-2-yl-3H-[1,3,4]thiadiazol-2-ylidene)-amine]
400	COc1ccc(/C=C/c2nn(C)/c(=N/C3CCCCC3)s2)cc1O [Example I26, 5-[(E)-2-(5-Cyclohexylimino-4-methyl-4,5-dihydro-[1,3,4]thiadiazol-2-yl)-vinyl]-2-methoxy-phenol]
460	COc1cc(-c2nn(C)/c(=N/C3CCCCC3)s2)ccc1O [Example I27, 4-(5-Cyclohexylimino-4-methyl-4,5-dihydro-[1,3,4]thiadiazol-2-yl)-2-methoxy-phenol]
230	Cn1nc(-c2cccc3cccnc23)s/c1=N\C1CCCCC1 [Example I28, Cyclohexyl-(3-methyl-5-quinolin-8-yl-3H-[1,3,4]thiadiazol-2-ylidene)-amine]
300	CN(C)c1ccc(-c2nn(C)/c(=N/C3CCCCC3)s2)cc1 [Example I29, [4-(5-Cyclohexylimino-4-methyl-4,5-dihydro-[1,3,4]thiadiazol-2-yl)-phenyl]-dimethyl-amine]
140	Cn1nc(-c2ccc(S(N)(=O)=O)cc2)s/c1=N\C1CCCCC1 [Example I30, 4-(5-Cyclohexylimino-4-methyl-4,5-dihydro-[1,3,4]thiadiazol-2-yl)-benzenesulfonamide]
230	Cn1nc(-c2cc3cc(Cl)ccc3[nH]2)s/c1=N\C1CCCCC1 [Example I31, [5-(5-Chloro-1H-indol-2-yl)-3-methyl-3H-[1,3,4]thiadiazol-2-ylidene]-cyclohexyl-amine; compound with trifluoro-methanesulfonic acid]
230	COc1ccc(-c2nn(C)/c(=N/C3CCCCC3)s2)cc1O [Example I32, 5-(5-Cyclohexylimino-4-methyl-4,5-dihydro-[1,3,4]thiadiazol-2-yl)-2-methoxy-phenol; compound with 1,1,1-trifluoro-methanesulfonic acid]
240	Cn1nc(-c2ccc(O)cc2)s/c1=N\C1CCCCC1 [Example I33, 4-(5-Cyclohexylimino-4-methyl-4,5-dihydro-[1,3,4]thiadiazol-2-yl)-phenol; compound with 1,1,1-trifluoro-methanesulfonic acid]
630	COc1ccc(-c2nn(C)/c(=N/C3CCCCC3)s2)cc1OC [Example I34, Cyclohexyl-[5-(3,4-dimethoxy-phenyl)-3-methyl-3H-[1,3,4]thiadiazol-2-ylidene]-amine]
580	COc1ccc(-c2nn(C)/c(=N/C3CCCCC3)s2)cc1Br [Example I35, [5-(3-Bromo-4-methoxy-phenyl)-3-methyl-3H-[1,3,4]thiadiazol-2-ylidene]-cyclohexyl-amine]
290	Cn1nc(-c2cccc(O)c2)s/c1=N\C1CCCCC1 [Example I36, 3-(5-Cyclohexylimino-4-methyl-4,5-dihydro-[1,3,4]thiadiazol-2-yl)-phenol]
230	COC(=O)c1ccc(-c2nn(C)/c(=N/C3CCCCC3)s2)cc1 [Example I37, 4-(5-Cyclohexylimino-4-methyl-4,5-dihydro-[1,3,4]thiadiazol-2-yl)-benzoic acid methyl ester]
340	Cn1nc(-c2cccnc2)s/c1=N\C1CCCCC1 [Example I38, Cyclohexyl-(3-methyl-5-pyridin-3-yl-3H-[1,3,4]thiadiazol-2-ylidene)-amine]
200	Cn1nc(-c2cccc(S(N)(=O)=O)c2)s/c1=N\C1CCCCC1 [Example I39, 3-(5-Cyclohexylimino-4-methyl-4,5-dihydro-[1,3,4]thiadiazol-2-yl)-benzenesulfonamide]
450	Cn1nc(-c2ccc3c(c2)OCO3)s/c1=N\C1CCCCC1 [Example I40, (5-Benzo[1,3]dioxol-5-yl-3-methyl-3H-[1,3,4]thiadiazol-2-ylidene)-cyclohexyl-amine]
1300	COc1cc(-c2nn(C)/c(=N/C3CCCCC3)s2)cc(OC)c1OC [Example I41, Cyclohexyl-[3-methyl-5-(3,4,5-trimethoxy-phenyl)-3H-[1,3,4]thiadiazol-2-ylidene]-amine]
130	Cn1nc(-c2ccc(Cl)cc2)s/c1=N\c1ccc(F)c(C(=O)O)c1 [I2,1, 5-[5-(4-Chloro-phenyl)-3-methyl-3H[1,3,4]thiadiazol-2-ylideneamino]-2-fluoro-benzoic acid]
1300	Cn1nc(-c2ccccc2Cl)s/c1=N\C1CCCCC1 [I10,1, [5-(2-Chloro-phenyl)-3-methyl-3H-[1,3,4]thiadiazol-2-ylidene]-cyclohexyl-amine]
1300	Cn1nc(-c2cc(Cl)cc(Cl)c2)s/c1=N\C1CCCCC1 [I17,1, Cyclohexyl-[5-(3,5-dichloro-phenyl)-3-methyl-3H-[1,3,4]thiadiazol-2-ylidene]-amine]
320	Cn1nc(-c2ccc(-c3ccccn3)s2)s/c1=N\C1CCCCC1 [I18,2, Cyclohexyl-[3-methyl-5-(5-pyridin-2-yl-thiophen-2-yl)-3H-[1,3,4]thiadiazol-2-ylidene]-amine]
61	COc1c(O)cc(-c2nn(C)/c(=N/C3CCCCC3)s2)cc1O [I18,3, 5-(5-Cyclohexylimino-4-methyl-4,5-dihydro[1,3,4]thiadiazol-2yl)-2-methoxy-benzene-1,3-diol; compound with trifluoro-methanesulfonic acid]
